Data: patent US7655414B2, “Determination of responders to chemotherapy” (Hoffman La-Roche Inc., priority 2005, dated 2010)

What was measured:
[1] = system: non-small-cell lung cancer (NSCLC); details: single-agent erlotinib, second- or third-line therapy; placebo 4.7 months; statistically significant improvement; cited from earlier work
[2] = system: first-line NSCLC patients; details: erlotinib 150 mg/day plus gemcitabine and cisplatin compared with gemcitabine and cisplatin alone; cited from earlier work
NSCLC = details: erlotinib plus carboplatin and paclitaxel; cited from earlier work
[3] = system: non-small-cell lung cancer (NSCLC); assay: Clinical study BO16411: Tarceva plus gemcitabine/cisplatin versus placebo plus gemcitabine/cisplatin, with pMAPK/pAKT IHC biomarker subset; format: in vivo, human
Protocol: Biomarker analyses were performed on a sample subset of 141 patients, for which formalin-fixed paraffin embedded (FFPE) tissue blocks from initial diagnosis had been received.
One pathologist evaluated all immunostainings. The nuclear staining intensity (pAKT, pMAPK) was estimated by visual inspection in a four step scale (0, 1, 2, 3). In addition to nuclear staining intensity, the percentage of positive cells, and the reason for analysis failure (i.e. lack of tumor cells in the tissue spot or lack of the tissue spot on the TMA slide) was recorded. Exploratory Statistical Analysis:
The basic statistics and interdependencies of the different markers were descriptively investigated. Methodological analyses comparing different measurement approaches, e.g. for IHC, were performed with regard to reliability and validity.
The p-values emerging from these analyses are not to be interpreted in a confirmative sense; they are to be seen as a special descriptive tool in order to guide the exploration towards an efficient candidate prediction rule. Markers were evaluated on a univariate level regarding their potential for prediction (e.g. search for cut-offs) of the clinical endpoints. Further multivariate techniques (e.g. Linear Discriminant Analysis, Multiple Logistic Regression, Principal Component Analysis with Rotation, Cluster Analysis, CART methodology) were employed in order to study combinations of markers. Biomarker and response correlations with clinical covariates were investigated. Candidate groupings derived from biomarkers were checked with time to event variables (Kaplan-Meier curves, Cox proportional hazard model, logrank test).
The patient subset with samples for biomarker analysis was compared to the overall study population regarding baseline patient characteristics and clinical outcome parameters.
For determining correlation between pMAPK expression and clincal outcome, cut-off values were established by descriptive statistical analysis: Franklin H-score was determined by combining staining intensity and percentage of stained tumor cells (pMAPK_hsco=(pMAPK_Nuclear_Staining+1)*pMAPK_Nuclear_Pos_Cells; range: 0-400). “Positive” pMAPK staining was defined by H-scores of =/>100, else the staining was “negative”.
“Positive” pAKT staining was defined by H-scores of =/>300, else the staining was “negative”.

Structure (SMILES): C#Cc1cccc(Nc2ncnc3cc(OCCOC)c(OCCOC)cc23)c1 [Tarceva®, N-(3-ethynylphenyl)-6,7-bis(2-methoxyethoxy) quinazolin-4-amine]
- Survival [1]: 6.7 months
- Benefit on primary (survival duration) and secondary endpoints [2]: no demonstrable benefit
- Outcome compared with TALENT (no benefit of adding erlotinib) (NSCLC): Identical results
- HR, benefit from chemotherapy/Tarceva combo ([3]; "Positive pMAPK" patients (H-score =/>100), p: 0.0516): 0.500
- Hazard Ratio, time to progression/death ([3]; COX model without covariates, pAKT1 data set, trtgr only): 1.269
- Hazard Ratio, time to progression/death ([3]; COX model without covariates, pMAPK data set, trtgr only): 1.320
- Hazard Ratio, time to progression/death ([3]; COX model, trtgr in patients with pAKT1 H-Score ≧ 300): 1.262
- Hazard Ratio, time to progression/death ([3]; COX model, trtgr in patients with pMAPK H-Score < 100): 1.634
- Hazard Ratio, time to progression/death ([3]; COX model, trtgr in patients with pMAPK H-Score ≧ 100): 0.773
- Responders (%) ([3]; Main clinical population, Tarceva + gemcitabine/cisplatin arm (N = 396)): 42.4%
- Responders (%) ([3]; Patient subset with IHC/FISH biomarker data, Tarceva + gemcitabine/cisplatin arm (N = 46)): 43.5%
